Data taken from article PMC5218480 (PLoS ONE, 2017).

System: MV-4-11 cells
Test: Gene expression microarray analysis (Affymetrix PrimeView) and GSEA
Type: cell-based, human
Set-up: RFU PODN (11730768_x_at) / Fold change /veh PODN (11730768_x_at) / RFU LINC00158 (11744669_a_at) / Fold change /veh LINC00158 (11744669_a_at) / RFU DUSP10 (11751237_a_at) / Fold change /veh DUSP10 (11751237_a_at) / RFU ID3 (11757404_x_at) / Fold change /veh ID3 (11757404_x_at) / RFU PLEKHG5 (11737974_s_at) / Fold change /veh PLEKHG5 (11737974_s_at) / RFU LRRC4B (11730491_at) / Fold change /veh LRRC4B (11730491_at) / RFU GIMAP4 (11747438_a_at) / Fold change /veh GIMAP4 (11747438_a_at) / RFU KRT8 (11758183_x_at) / Fold change /veh KRT8 (11758183_x_at) / RFU CNN1 (11734310_a_at) / Fold change /veh CNN1 (11734310_a_at) / RFU VPS37D (11726825_at) / Fold change /veh VPS37D (11726825_at) / RFU C10orf10 (11716522_x_at) / Fold change /veh C10orf10 (11716522_x_at) / RFU KIR2DL2 /// KIR2DL4 /// KIR2DL5A /// KIR2DL5B /// KIR2DS1 /// KIR2DS2 /// KIR2DS3 /// KIR2DS4 /// KIR3DL3 /// KIR3DL3 /// KIR3DS1 (11738374_at) / Fold change /veh KIR2DL2 /// KIR2DL4 /// KIR2DL5A /// KIR2DL5B /// KIR2DS1 /// KIR2DS2 /// KIR2DS3 /// KIR2DS4 /// KIR3DL3 /// KIR3DL3 /// KIR3DS1 (11738374_at) / RFU C1QL1 (11718748_at) / Fold change /veh C1QL1 (11718748_at) / RFU TMPRSS4 (11747572_a_at) / Fold change /veh TMPRSS4 (11747572_a_at) / RFU HAMP (11756126_x_at) / Fold change /veh HAMP (11756126_x_at) / RFU RNFT2 (11725882_a_at) / Fold change /veh RNFT2 (11725882_a_at) / RFU NR4A2 (11747474_a_at) / Fold change /veh NR4A2 (11747474_a_at) / RFU ABCC12 (11746883_a_at) / Fold change /veh ABCC12 (11746883_a_at) / RFU TMEM136 (11760407_x_at) / Fold change /veh TMEM136 (11760407_x_at) / RFU CLDN22 /// WWC2 (11732394_at) / Fold change /veh CLDN22 /// WWC2 (11732394_at) / RFU HLA-DPB1 (11760878_x_at) / Fold change /veh HLA-DPB1 (11760878_x_at) / RFU SPINT1 (11716480_a_at) / Fold change /veh SPINT1 (11716480_a_at) / RFU GAP43 (11754022_s_at) / Fold change /veh GAP43 (11754022_s_at) / RFU A4GNT (11735810_at) / Fold change /veh A4GNT (11735810_at) / RFU PRB3 (11715151_x_at) / Fold change /veh PRB3 (11715151_x_at) / RFU TUBB4B (11761932_at) / Fold change /veh TUBB4B (11761932_at) / RFU CAPN14 (11732068_a_at) / Fold change /veh CAPN14 (11732068_a_at) / RFU TMCC2 (11721928_a_at) / Fold change /veh TMCC2 (11721928_a_at) / RFU IRGQ (11745062_a_at) / Fold change /veh IRGQ (11745062_a_at) / RFU FAM174B (11720279_a_at) / Fold change /veh FAM174B (11720279_a_at) / RFU TMPRSS4 (11748680_a_at) / Fold change /veh TMPRSS4 (11748680_a_at) / RFU FAM212B (11763350_a_at) / Fold change /veh FAM212B (11763350_a_at) / RFU PLEKHG5 (11743358_a_at) / Fold change /veh PLEKHG5 (11743358_a_at) / RFU ZSCAN30 (11745921_a_at) / Fold change /veh ZSCAN30 (11745921_a_at) / RFU CMKLR1 (11741424_a_at) / Fold change /veh CMKLR1 (11741424_a_at) / RFU LOC101060620 /// MAPK8IP1 (11723275_at) / Fold change /veh LOC101060620 /// MAPK8IP1 (11723275_at) / RFU SPTSSB (11747773_x_at) / Fold change /veh SPTSSB (11747773_x_at) / RFU PRSS12 (11739890_at) / Fold change /veh PRSS12 (11739890_at) / RFU BIN1 (11741810_x_at) / Fold change /veh BIN1 (11741810_x_at) / RFU WNT11 (11732464_a_at) / Fold change /veh WNT11 (11732464_a_at) / RFU C10orf10 (11716521_a_at) / Fold change /veh C10orf10 (11716521_a_at) / RFU C5orf56 (11738089_at) / Fold change /veh C5orf56 (11738089_at) / RFU CYB561 (11721691_x_at) / Fold change /veh CYB561 (11721691_x_at) / RFU ANKRD19P (11752326_a_at) / Fold change /veh ANKRD19P (11752326_a_at) / RFU OR2T12 /// OR2T33 /// OR2T8 (11738714_s_at) / Fold change /veh OR2T12 /// OR2T33 /// OR2T8 (11738714_s_at) / RFU VCAN (11748164_a_at) / Fold change /veh VCAN (11748164_a_at) / RFU JSRP1 (11732532_at) / Fold change /veh JSRP1 (11732532_at) / RFU KRTAP10-11 (11738290_x_at) / Fold change /veh KRTAP10-11 (11738290_x_at) / RFU MYO3A (11730013_a_at) / Fold change /veh MYO3A (11730013_a_at) / RFU EBF3 (11725865_a_at) / Fold change /veh EBF3 (11725865_a_at) / RFU CAMK2N1 (11719241_x_at) / Fold change /veh CAMK2N1 (11719241_x_at) / RFU C5orf56 (11738088_a_at) / Fold change /veh C5orf56 (11738088_a_at) / RFU OLFML3 (11715873_a_at) / Fold change /veh OLFML3 (11715873_a_at) / RFU LOC100653217 /// NTM (11731650_a_at) / Fold change /veh LOC100653217 /// NTM (11731650_a_at) / RFU MAPK11 (11762145_a_at) / Fold change /veh MAPK11 (11762145_a_at) / RFU FIZ1 (11724087_x_at) / Fold change /veh FIZ1 (11724087_x_at) / RFU OASL (11726364_x_at) / Fold change /veh OASL (11726364_x_at) / RFU SOX15 (11748057_x_at) / Fold change /veh SOX15 (11748057_x_at) / RFU CD79A (11719716_a_at) / Fold change /veh CD79A (11719716_a_at) / RFU HIST1H1D (11736915_at) / Fold change /veh HIST1H1D (11736915_at) / RFU CASKIN2 (11723855_a_at) / Fold change /veh CASKIN2 (11723855_a_at) / RFU LOC730098 (11760151_x_at) / Fold change /veh LOC730098 (11760151_x_at) / RFU OR4N2 (11742367_at) / Fold change /veh OR4N2 (11742367_at) / RFU PRRT2 (11749266_a_at) / Fold change /veh PRRT2 (11749266_a_at) / RFU SNX32 (11753110_a_at) / Fold change /veh SNX32 (11753110_a_at) / RFU CDHR5 (11726645_a_at) / Fold change /veh CDHR5 (11726645_a_at) / RFU RCAN1 (11760418_a_at) / Fold change /veh RCAN1 (11760418_a_at) / RFU FAM167A (11723789_a_at) / Fold change /veh FAM167A (11723789_a_at) / RFU FAM26E (11764081_at) / Fold change /veh FAM26E (11764081_at) / RFU ISYNA1 (11749810_s_at) / Fold change /veh ISYNA1 (11749810_s_at) / RFU ACY1 (11761880_at) / Fold change /veh ACY1 (11761880_at) / RFU 11764098_at / Fold change /veh 11764098_at / RFU SAMD14 (11745864_x_at) / Fold change /veh SAMD14 (11745864_x_at) / RFU NPB (11741838_a_at) / Fold change /veh NPB (11741838_a_at) / RFU TMPRSS6 (11731388_a_at) / Fold change /veh TMPRSS6 (11731388_a_at) / RFU KRTAP10-2 (11738614_at) / Fold change /veh KRTAP10-2 (11738614_at) / RFU ARHGAP8 /// PRR5-ARHGAP8 (11727945_x_at) / Fold change /veh ARHGAP8 /// PRR5-ARHGAP8 (11727945_x_at) / RFU KRTAP5-7 /// NADSYN1 (11734609_at) / Fold change /veh KRTAP5-7 /// NADSYN1 (11734609_at) / RFU RASL12 (11751679_a_at) / Fold change /veh RASL12 (11751679_a_at) / RFU CDKN2B (11736163_a_at) / Fold change /veh CDKN2B (11736163_a_at) / RFU PRF1 (11729649_at) / Fold change /veh PRF1 (11729649_at) / RFU, ZNF638 /// ZNF638-IT1 / Fold change vs veh, ZNF638 /// ZNF638-IT1 / RFU, PANK3 / Fold change vs veh, PANK3 / RFU, SH3YL1 / Fold change vs veh, SH3YL1 / RFU, ZEB2 / Fold change vs veh, ZEB2 / RFU, NRIP1 / Fold change vs veh, NRIP1 / RFU, PTTG1IP / Fold change vs veh, PTTG1IP / RFU, CAPN2 / Fold change vs veh, CAPN2 / RFU, MED14 / Fold change vs veh, MED14 / RFU, SNORA58 / Fold change vs veh, SNORA58 / RFU, C1orf63 / Fold change vs veh, C1orf63 / RFU, LRRFIP1 / Fold change vs veh, LRRFIP1 / RFU, NDUFAF7 / Fold change vs veh, NDUFAF7 / RFU, SLC12A2 / Fold change vs veh, SLC12A2 / RFU, IBTK / Fold change vs veh, IBTK / RFU, ESF1 / Fold change vs veh, ESF1 / Fold change vs veh, TMEM50B / RFU, TAOK1 / Fold change vs veh, TAOK1 / RFU, ACBD3 / Fold change vs veh, ACBD3 / RFU, TMA16 / Fold change vs veh, TMA16 / RFU, RWDD3 / Fold change vs veh, RWDD3 / RFU, BCAT1 / Fold change vs veh, BCAT1 / RFU, EDEM3 / Fold change vs veh, EDEM3 / RFU, TMEM33 / Fold change vs veh, TMEM33 / RFU, WDR75 / Fold change vs veh, WDR75 / RFU, AHCTF1 / Fold change vs veh, AHCTF1 / RFU, TFRC / Fold change vs veh, TFRC / RFU, ZDHHC17 / Fold change vs veh, ZDHHC17 / RFU, NOM1 / Fold change vs veh, NOM1 / RFU, ARL8B / Fold change vs veh, ARL8B / RFU, ZBTB11 / Fold change vs veh, ZBTB11 / RFU, TAMM41 / Fold change vs veh, TAMM41 / RFU, KIAA1704 /// LOC100996395 / Fold change vs veh, KIAA1704 /// LOC100996395 / RFU, ING1 / Fold change vs veh, ING1 / RFU, TRMT61B / Fold change vs veh, TRMT61B / RFU, FUBP3 / Fold change vs veh, FUBP3 / RFU, TP53 / Fold change vs veh, TP53 / RFU, TNKS2 / Fold change vs veh, TNKS2 / RFU, ZFP14 / Fold change vs veh, ZFP14 / RFU, ACTR2 / Fold change vs veh, ACTR2 / RFU, PPP3R1 / Fold change vs veh, PPP3R1 / RFU, PIK3R1 / Fold change vs veh, PIK3R1 / RFU, HNRNPA1 / Fold change vs veh, HNRNPA1 / RFU, RNF170 / Fold change vs veh, RNF170 / RFU, ZNF28 / Fold change vs veh, ZNF28 / RFU, RNGTT / Fold change vs veh, RNGTT / RFU, OGT / Fold change vs veh, OGT / RFU, BRD1 / Fold change vs veh, BRD1 / RFU, MARS / Fold change vs veh, MARS / RFU, ZNF655 / Fold change vs veh, ZNF655 / RFU, FAHD1 / Fold change vs veh, FAHD1 / RFU, BDP1 / Fold change vs veh, BDP1 / RFU, LRRCC1 / Fold change vs veh, LRRCC1 / RFU, ARID1A / Fold change vs veh, ARID1A / RFU, ZNF146 / Fold change vs veh, ZNF146 / RFU, ZNF330 / Fold change vs veh, ZNF330 / RFU, GPN3 / Fold change vs veh, GPN3 / RFU, C9orf123 / Fold change vs veh, C9orf123 / RFU, N4BP2L2 / Fold change vs veh, N4BP2L2 / RFU, ARFIP1 / Fold change vs veh, ARFIP1 / RFU, FAM179B / Fold change vs veh, FAM179B / RFU, BCL10 / Fold change vs veh, BCL10 / RFU, UHRF1BP1L / Fold change vs veh, UHRF1BP1L / RFU, BET1 / Fold change vs veh, BET1 / RFU, CNOT2 / Fold change vs veh, CNOT2 / RFU, ZNF268 / Fold change vs veh, ZNF268 / Fold change vs veh, ZNF507 / RFU, DGCR2 / Fold change vs veh, DGCR2 / RFU, WDSUB1 / Fold change vs veh, WDSUB1 / Fold change vs veh, HSP90B1 /// MIR3652 / RFU, ADSS / Fold change vs veh, ADSS / RFU, GK / Fold change vs veh, GK / RFU, ZNF148 / Fold change vs veh, ZNF148 / RFU, TAF9 / Fold change vs veh, TAF9 / RFU, SLC1A5 / Fold change vs veh, SLC1A5 / RFU, SLMO2 / Fold change vs veh, SLMO2 / RFU, ABCC4 / Fold change vs veh, ABCC4 / RFU, LOC101060439 /// RAP1B / Fold change vs veh, LOC101060439 /// RAP1B / RFU, RFX7 / Fold change vs veh, RFX7 / RFU, GTPBP10 / Fold change vs veh, GTPBP10 / RFU, CNEP1R1 / Fold change vs veh, CNEP1R1 / RFU, BIVM-ERCC5 /// ERCC5 / Fold change vs veh, BIVM-ERCC5 /// ERCC5 / RFU, ILF3 / Fold change vs veh, ILF3 / RFU 11762660_at / Fold change /veh 11762660_at / RFU VCAN (11757783_s_at) / Fold change /veh VCAN (11757783_s_at) / RFU DDX43 (11728927_at) / Fold change /veh DDX43 (11728927_at) / RFU KRT8 (11758188_x_at) / Fold change /veh KRT8 (11758188_x_at) / RFU NKD1 (11759106_at) / Fold change /veh NKD1 (11759106_at) / RFU SRD5A1 (11742802_a_at) / Fold change /veh SRD5A1 (11742802_a_at) / RFU TPSAB1 /// TPSB2 (11721975_s_at) / Fold change /veh TPSAB1 /// TPSB2 (11721975_s_at) / RFU GSTM3 (11746129_a_at) / Fold change /veh GSTM3 (11746129_a_at) / RFU IL23R (11737362_x_at) / Fold change /veh IL23R (11737362_x_at) / RFU TMEM51 (11727254_a_at) / Fold change /veh TMEM51 (11727254_a_at) / RFU PIWIL2 (11732686_x_at) / Fold change /veh PIWIL2 (11732686_x_at) / RFU ORM1 (11744905_x_at) / Fold change /veh ORM1 (11744905_x_at) / RFU CCDC152 (11743942_at) / Fold change /veh CCDC152 (11743942_at) / RFU ECM1 (11717891_a_at) / Fold change /veh ECM1 (11717891_a_at) / RFU IL23R (11748794_a_at) / Fold change /veh IL23R (11748794_a_at) / RFU TNFAIP8L3 (11732012_x_at) / Fold change /veh TNFAIP8L3 (11732012_x_at) / RFU MBOAT4 (11741988_at) / Fold change /veh MBOAT4 (11741988_at) / RFU 11764193_at / Fold change /veh 11764193_at / RFU TMEM53 (11763286_at) / Fold change /veh TMEM53 (11763286_at) / RFU MAGEB2 (11727129_at) / Fold change /veh MAGEB2 (11727129_at) / RFU TMEM200A (11744735_a_at) / Fold change /veh TMEM200A (11744735_a_at) / RFU CCDC152 (11751479_a_at) / Fold change /veh CCDC152 (11751479_a_at) / RFU FAM211A (11726209_a_at) / Fold change /veh FAM211A (11726209_a_at) / RFU RGS16 (11746705_a_at) / Fold change /veh RGS16 (11746705_a_at) / RFU VCAN (11755009_s_at) / Fold change /veh VCAN (11755009_s_at) / RFU RHOB (11743442_s_at) / Fold change /veh RHOB (11743442_s_at) / RFU RGS16 (11720943_a_at) / Fold change /veh RGS16 (11720943_a_at) / RFU RGS16 (11720944_at) / Fold change /veh RGS16 (11720944_at) / RFU, VPS4B / Fold change vs veh, VPS4B / RFU, CREB1 / Fold change vs veh, CREB1 / RFU, DNAJC13 / Fold change vs veh, DNAJC13 / RFU, GNAQ / Fold change vs veh, GNAQ / RFU, CDK5R1 / Fold change vs veh, CDK5R1 / RFU, ZRANB3 / Fold change vs veh, ZRANB3 / RFU, CUL4A / Fold change vs veh, CUL4A / RFU, CCNY / Fold change vs veh, CCNY / RFU, UFL1 / Fold change vs veh, UFL1 / RFU, COG3 / Fold change vs veh, COG3 / RFU, DIAPH2 / Fold change vs veh, DIAPH2 / RFU, SKA2 / Fold change vs veh, SKA2 / RFU, AFF3 / Fold change vs veh, AFF3 / RFU, LMF1 / Fold change vs veh, LMF1 / RFU, IPO11 / Fold change vs veh, IPO11 / RFU, DFFB / Fold change vs veh, DFFB / RFU, FOXP1 / Fold change vs veh, FOXP1 / RFU, CARD8 / Fold change vs veh, CARD8 / RFU, STRN3 / Fold change vs veh, STRN3 / RFU, ADK / Fold change vs veh, ADK / RFU, RASSF2 / Fold change vs veh, RASSF2 / RFU, WIPF1 / Fold change vs veh, WIPF1 / RFU, LARP1B / Fold change vs veh, LARP1B / RFU, RASA1 / Fold change vs veh, RASA1 / RFU, RB1 / Fold change vs veh, RB1 / RFU, PPFIA1 / Fold change vs veh, PPFIA1 / RFU, MAT2A / Fold change vs veh, MAT2A / RFU, CCT5 / Fold change vs veh, CCT5 / RFU, WDR92 / Fold change vs veh, WDR92 / RFU, CUX1 / Fold change vs veh, CUX1 / RFU, TTC7A / Fold change vs veh, TTC7A / RFU, TMEM135 / Fold change vs veh, TMEM135 / RFU, DEPTOR / Fold change vs veh, DEPTOR / RFU, CPM / Fold change vs veh, CPM / RFU, DNAJB6 / Fold change vs veh, DNAJB6 / RFU, CACNA2D3 / Fold change vs veh, CACNA2D3 / RFU, DTX4 / Fold change vs veh, DTX4 / RFU, TFCP2 / Fold change vs veh, TFCP2 / RFU, GMCL1 /// GMCL1P1 / Fold change vs veh, GMCL1 /// GMCL1P1 / RFU, AEBP2 / Fold change vs veh, AEBP2 / RFU, SNHG1 /// SNORD22 /// SNORD25 /// SNORD26 /// SNORD27 /// SNORD28 /// SNORD29 /// SNORD31 / Fold change vs veh, SNHG1 /// SNORD22 /// SNORD25 /// SNORD26 /// SNORD27 /// SNORD28 /// SNORD29 /// SNORD31 / Fold change (Aza/veh), C12orf56 (ProbeSet 11735607_a_at) / Fold change (ACY-1035/veh), C12orf56 (ProbeSet 11735607_a_at) / Fold change (Aza/veh), FGFR1OP (ProbeSet 11751329_s_at) / Fold change (ACY-1035/veh), FGFR1OP (ProbeSet 11751329_s_at) / Fold change (Aza/veh), VPS36 (ProbeSet 11739960_a_at) / Fold change (ACY-1035/veh), VPS36 (ProbeSet 11739960_a_at) / RFU SYPL1 (11715823_x_at) / Fold change /veh SYPL1 (11715823_x_at) / RFU IGFBP7 (11715501_s_at) / Fold change /veh IGFBP7 (11715501_s_at) / RFU REEP3 (11722064_at) / Fold change /veh REEP3 (11722064_at) / RFU IGLL1 (11728026_x_at) / Fold change /veh IGLL1 (11728026_x_at): dose or concentration left out as unconfirmed
Conditions: MV-4-11 cells, 48 hours

**Q.** How did the “RFU GAP43 (11754022_s_at)” value turn out when Nc1ncn([C@@H]2O[C@H](CO)[C@@H](O)[C@H]2O)c(=O)n1 [azacitidine] was run?
**A.** Its value is 65.19 RFU.
